The text below walks through data of patent US20260102347A1, “Sulfur-Containing Ionizable Lipids for the Delivery of Therapeutic Agents” (NanoVation Therapeutics Inc., priority 2022, published 2026).

For test [1] the following is noted: delivery of siRNA; relative to KC2; cited from earlier work.
The next test concerns liver. Put plainly: In vivo analysis in CD-1 mice: luciferase mRNA-LNP, luminescence in the liver. Conditions: LNP 50/10/38.5/1.5 mol % ionizable lipid/DSPC/chol/PEG-DMG, N/P 6, mRNA encoding luciferase 1 mg/kg intravenous, 4 hours post-injection (FIG. 2A). The protocol:
(§1) Lipids 1 or 2 described herein, DSPC, cholesterol, and PEG-DMG, were dissolved in ethanol at the appropriate ratios to a final concentration of 10 mM total lipid. Nucleic acid (siRNA or mRNA) was dissolved in an appropriate buffer such as 25 mM sodium acetate pH 4 or sodium citrate pH 4 to a concentration necessary to achieve the appropriate amine-to-phosphate ratios. The aqueous and organic solutions were mixed using a rapid-mixing device as described in Kulkarni et al., 2018, ACS Nano, 12:4787 and Kulkarni et al., 2017, Nanoscale, 36:133347 (each incorporated herein by reference) at a flow rate ratio of 3:1 (v/v; respectively) and a total flow rate of 20 mL/min. The resultant mixture was dialyzed directly against 1000-fold volume of PBS pH 7.4. All formulations were concentrated using an Amicon™ centrifugal filter unit and analysed using the methods described below. LNP-mRNA encoding firefly luciferase were injected intravenously (tail-vein) into 6-8 week old CD-1 mice. Four hours following injection, the animals were euthanized and the liver and spleen and isolated. Tissue was homogenized in Glo Lysis buffer and a luciferase assay performed using the Steady Glo Luciferase assay kit (as per manufacturers recommendations). LNP formulations containing 50/10/38.5/1.5 mol % of ionizable lipids/DSPC/chol/PEG-DMG with a nitrogen-to-phosphorous ratio (N/P) of 6 and mRNA encoding luciferase were tested for in vivo transfection efficiency in the liver and spleen after injection to CD-1 mice. The mRNA dose was 1 mg/kg. Luminescence intensity in the liver and spleen was measured at 4 hours post-injection. The ionizable lipids were 1 and 5-32 (Table 1).

In a further test the test system is spleen. Description: In vivo analysis in CD-1 mice: luciferase mRNA-LNP, luminescence in the spleen. Conditions: LNP 50/10/38.5/1.5 mol % ionizable lipid/DSPC/chol/PEG-DMG, N/P 6, mRNA encoding luciferase 1 mg/kg intravenous, 4 hours post-injection (FIG. 2B). The protocol:
as §1

As to `CCCCC/C=C\C/C=C\CCCCCCCCC(CCCCCCCC/C=C\C/C=C\CCCCC)OC(=O)CCCN(C)C` [MC3, DLin-MC3-DMA], the “siRNA required, times less than KC2” value in test [1] is recorded as “about 3 times”. With `CCCCCCCCCC(=O)OC(CCCCC(CCCCC(CSC1CCCCC1)OC(=O)CCCCCCCCC)OC(=O)CCCN(C)C)CSC1CCCCC1` (centres unmarked) [lipid 6, 1,13-bis(Cyclohexylthio)-7-((4-(dimethylamino)butanoyl)oxy)tridecane-2,12-diyl bis-(decanoate)], the “luminescence intensity per mg liver compared with the MC3 benchmark” value in the test on liver was “higher”. Also, the “luminescence intensity per mg spleen compared with the MC3 benchmark” value in the test on spleen is reported as “higher”. With `CCCCCCCCCC(=O)OC(CCCCCC(CCCCCC(CSCCCCCC)OC(=O)CCCCCCCCC)OC(=O)CCCN(C)C)CSCCCCCC` (centres unmarked) [lipid 7, 8-((4-(Dimethylamino)butanoyl)oxy)-1,15-bis(hexylthio)pentadecane-2,14-diyl bis(decanoate)], the “luminescence intensity per mg liver compared with the MC3 benchmark” value with liver was “higher”. Further, the “luminescence intensity per mg spleen compared with the MC3 benchmark” value in the test with spleen is on record as “higher”.

On to `CCCCCCSCC(CCCCCC(CCCCCC(CSCCCCCC)OC(=O)CCC1CCCCC1)OC(=O)CCCN(C)C)OC(=O)CCC1CCCCC1` (centres unmarked) [lipid 8, 8-((4-(Dimethylamino)butanoyl)oxy)-1,15-bis(hexylthio)pentadecane-2,14-diyl bis(3-cyclohexylpropanoate)], for which, in the test with liver, the “luminescence intensity per mg liver compared with the MC3 benchmark” value is on record as “higher”. In addition, the “luminescence intensity per mg spleen compared with the MC3 benchmark” value with spleen is recorded as “higher”. Turning to `CCCCCCCCCC(=O)OC(CCCCCC(CCCCCC(CSCCCCCC)OC(=O)CN(C)C(=O)CCCCC)OC(=O)CCCN(C)C)CSCCCCCC` (centres unmarked) [lipid 9, 8-((4-(dimethylamino)butanoyl)oxy)-14-((N-hexanoyl-N-methylglycyl)oxy)-1,15-bis-(hexylthio)pentadecan-2-yl decanoate], the “luminescence intensity per mg liver compared with the MC3 benchmark” value in the test on liver is given as “higher”. In addition, in the test with spleen, the “luminescence intensity per mg spleen compared with the MC3 benchmark” value was “higher”.

For the molecule `CCCCCCCCCC(=O)OC(CCCCCC(CCCCCC(CSC1CCCCC1)OC(=O)CCCCCCCCC)OC(=O)CCCN(C)C)CSC1CCCCC1` (centres unmarked) [lipid 10, 1,15-bis(cyclohexylthio)-8-((4-(dimethylamino)butanoyl)oxy)pentadecane-2,14-diyl bis(decanoate)], the “luminescence intensity per mg liver compared with the MC3 benchmark” value in the test with liver is given as “higher”. On the same count and under the same terms, the result for `CCCCCCCCC(=O)OC(CCCCCC(CCCCCC(CSC1CCCCC1)OC(=O)CCCCCCCC)OC(=O)CCCN(C)C)CSC1CCCCC1` (centres unmarked) [lipid 11, 1,15-bis(cyclohexylthio)-8-((4-(dimethylamino)butanoyl)oxy)pentadecane-2,14-diyl dinonanoate] reads “higher”. For `CCCCCCCCCC(=O)OC(CCCCC(CCCCC(CSCCCCC)OC(=O)CCCCCCCCC)N(C)CCCCO)CSCCCCC` (centres unmarked) [lipid 22, 7-((4-Hydroxybutyl)(methyl)amino)-1,13-bis(pentylthio)tridecane-2,12-diyl bis(decano-ate)], the “luminescence intensity per mg liver compared with the MC3 benchmark” value with liver was “higher”. In addition, the “luminescence intensity per mg spleen compared with the MC3 benchmark” value with spleen is recorded as “higher”.

For the molecule `CCCCCCCCCC(=O)OC(CCCCC(CCCCC(CSCCCCCCC)OC(=O)CCCCCCCCC)N(C)CCCCO)CSCCCCCCC` (centres unmarked) [lipid 23, 1,13-bis(Heptylthio)-7-((4-hydroxybutyl)(methyl)amino)tridecane-2,12-diyl bis(decano-ate)], the “luminescence intensity per mg liver compared with the MC3 benchmark” value in the test with liver is recorded as “higher”. Further, the “luminescence intensity per mg spleen compared with the MC3 benchmark” value with spleen is “higher”. Turning to `CCCCCCCCC(=O)OC(CCCCC(CCCCC(CSCCCCCCC)OC(=O)CCCCCCCC)N(C)CCCCO)CSCCCCCCC` (centres unmarked) [lipid 24, 1,13-bis(Heptylthio)-7-((4-hydroxybutyl)(methyl)amino)tridecane-2,12-diyl dinonano-ate], the “luminescence intensity per mg liver compared with the MC3 benchmark” value with liver is reported as “higher”. Also, the “luminescence intensity per mg spleen compared with the MC3 benchmark” value in the test on spleen was “higher”. As for `CCCCCCCCC(=O)OC(CCCCCC(CCCCCC(CSCCCCC)OC(=O)CCCCCCCC)N(C)CCCCO)CSCCCCC` (centres unmarked) [lipid 25, 8-((4-hydroxybutyl)(methyl)amino)-1,15-bis(pentylthio)pentadecane-2,14-diyl dinonano-ate], in the test on liver, the “luminescence intensity per mg liver compared with the MC3 benchmark” value is given as “higher”. Besides, in the test on spleen, the “luminescence intensity per mg spleen compared with the MC3 benchmark” value is given as “higher”.

As to `CCCCCCCCCC(=O)OC(CCCCCC(CCCCCC(CSCCCCC)OC(=O)CCCCCCCCC)N(C)CCCCO)CSCCCCC` (centres unmarked) [lipid 26, 8-((4-hydroxybutyl)(methyl)amino)-1,15-bis(pentylthio)pentadecane-2,14-diyl bis-(decanoate)], the “luminescence intensity per mg liver compared with the MC3 benchmark” value in the test on liver was “higher”. The “luminescence intensity per mg spleen compared with the MC3 benchmark” value with spleen was “higher”. Consider `CCCCCCCCCC(=O)OC(CCCCCC(CCCCCC(CSCCCCCC)OC(=O)CCCCCCCCC)N(C)CCCCO)CSCCCCCC` (centres unmarked) [lipid 27, 1,15-bis(Hexylthio)-8-((4-hydroxybutyl)(methyl)amino)pentadecane-2,14-diyl bis-(decanoate)], for which the “luminescence intensity per mg liver compared with the MC3 benchmark” value with liver was “higher”. For the same molecule, the “luminescence intensity per mg spleen compared with the MC3 benchmark” value with spleen is “higher”. As for `CCCCCCCCCC(=O)OC(CCCCCC(CCCCCC(CSCCCCCC)OC(=O)CN(C)C(=O)CCCCC)N(C)CCCCO)CSCCCCCC` (centres unmarked) [lipid 30, 14-((N-hexanoyl-N-methylglycyl)oxy)-1,15-bis(hexylthio)-8-((4-hydroxybutyl)(methyl)-amino)pentadecan-2-yl decanoate], the “luminescence intensity per mg liver compared with the MC3 benchmark” value in the test on liver is “higher”. For the same molecule, in the test on spleen, the “luminescence intensity per mg spleen compared with the MC3 benchmark” value is listed as “higher”. On to `CCCCCCCCC(=O)OC(CCCCCC(CCCCCC(CSCCCCCCC)OC(=O)CCCCCCCC)N(C)CCCCO)CSCCCCCCC` (centres unmarked) [lipid 31, 1,15-bis(Heptylthio)-8-((4-hydroxybutyl)(methyl)amino)pentadecane-2,14-diyl dinonanoate], for which the “luminescence intensity per mg liver compared with the MC3 benchmark” value in the test on liver was “higher”. In addition, the “luminescence intensity per mg spleen compared with the MC3 benchmark” value in the test on spleen is given as “higher”. `CCCCCCCCC(=O)OC(CCCCCC(CCCCCC(CSC1CCCCC1)OC(=O)CCCCCCCC)N(C)CCCCO)CSC1CCCCC1` (centres unmarked) [lipid 32, 1,15-bis(Cyclohexylthio)-8-((4-hydroxybutyl)(methyl)amino)pentadecane-2,14-diyl dinonanoate]: the “luminescence intensity per mg liver compared with the MC3 benchmark” value with liver is reported as “higher”. Further, the “luminescence intensity per mg spleen compared with the MC3 benchmark” value in the test with spleen is recorded as “higher”.
